Consider four compounds from patent US7858647B2, “N-[1,3,4]-thiadiazol-2-yl-benzene sulfonamides, pharmaceutical compositions thereof and methods for their therapeutic use” (Sanofi-Aventis, priority 2005, dated 2010).

The structures appear in SMILES notation. pEC50: −log10 of the molar value. Where two headings read alike, the source gives them in different places.

One may read the pEC50 as −log10 of the EC50, conventionally taken in molar units. A lower pEC50 goes with a high EC50.

The target of test [1] is T1, human PPARdelta (Homo sapiens, UniProt Q03181).
T1 construct: amino acids S139-Y441; expressed in transfected cells
T1 sequence (Q03181 139-441): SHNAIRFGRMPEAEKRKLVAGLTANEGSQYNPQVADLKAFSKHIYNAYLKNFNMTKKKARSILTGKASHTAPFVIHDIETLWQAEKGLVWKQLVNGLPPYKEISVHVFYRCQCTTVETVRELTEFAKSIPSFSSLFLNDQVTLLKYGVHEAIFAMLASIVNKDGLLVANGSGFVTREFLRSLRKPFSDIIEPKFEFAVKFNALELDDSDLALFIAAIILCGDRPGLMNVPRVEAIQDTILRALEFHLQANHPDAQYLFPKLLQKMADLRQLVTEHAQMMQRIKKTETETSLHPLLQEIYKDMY
Kind of test: Cellular PPARdelta assay (luciferase reporter, stably transfected HEK cell line). To be noted: GR-GAL4-humanPPARdelta-LBD. The format is cell-based. The procedure:
The activity of PPARalpha agonists is determined in a 3-day assay which is described below:
The PPARalpha reporter cell line is cultivated to 80% confluence in DMEM (#41965-039, Invitrogen) which is mixed with the following additions: 10% cs-FCS (fetal calf serum; #SH-30068.03, Hyclone), 0.5 mg/ml zeocin (#R250-01, Invitrogen), 0.5 mg/ml G418 (#10131-027, Invitrogen), 1% penicillin-streptomycin solution (#15140-122, Invitrogen) and 2 mM L-glutamine (#25030-024, Invitrogen). The cultivation takes place in standard cell culture bottles (#353112, Becton Dickinson) in a cell culture incubator at 37° C. in the presence of 5% CO2. The 80%-confluent cells are washed once with 15 ml of PBS (#14190-094, Invitrogen), treated with 3 ml of trypsin solution (#25300-054, Invitrogen) at 37° C. for 2 min, taken up in 5 ml of the DMEM described and counted in a cell counter. After dilution to 500.000 cells/ml, 35,000 cells are seeded in each well of a 96 well microtiter plate with a clear plastic base (#3610, Corning Costar). The plates are incubated in the cell culture incubator at 37° C. and 5% CO2 for 24 h.
PPARalpha Agonists to be Tested are Dissolved in DMSO in a Concentration of 10 mM. This stock solution is diluted in DMEM (#41965-039, Invitrogen) which is mixed with 5% cs-FCS (#SH-30068.03, Hyclone), 2 mM L-glutamine (#25030-024, Invitrogen) and the previously described antibiotics (zeocin, G418, penicillin and streptomycin). Test substances are tested in 11 different concentrations in the range from 10 μM to 100 pM.
The medium of the PPARalpha reporter cell line seeded on day 1 is completely removed by aspiration, and the test substances diluted in medium are immediately added to the cells. The dilution and addition of the substances is carried out by a robot (Beckman FX). The final volume of the test substances diluted in medium is 100 μl per well of a 96 well microtiter plate. The DMSO concentration in the assay is less than 0.1% v/v in order to avoid cytotoxic effects of the solvent.
The assay plates are incubated in an incubator at 37° C. and 5% CO2 for 24 h.
The PPARalpha reporter cells treated with the test substances are removed from the incubator, and the medium is aspirated off. The cells are lyzed by pipetting 50 μl of Bright Glo reagent (from Promega) into each well of a 96 well microtiter plate. After incubation at room temperature in the dark for 10 minutes, the microtiter plates are measured in the luminometer (Trilux from Wallac). The measuring time for each well of a microtiter plate is 1 sec.
The raw data from the luminometer are transferred into a Microsoft Excel file. Dose-effect plots and EC50 values of PPAR agonists are calculated using the XL.Fit program as specified by the manufacturer (IDBS).
The potency of substances which bind to human PPARdelta and activate it in an agonistic manner is analyzed using a stably transfected HEK cell line (HEK=human embryo kidney) which is referred to here as PPARdelta reporter cell line. In analogy to the assay described for PPARalpha, the PPARdelta reporter cell line also contains two genetic elements, a luciferase reporter element (pdeltaM-GAL4-Luc-Zeo) and a PPARdelta fusion protein (GR-GAL4-humanPPARdelta-LBD) which mediates expression of the luciferase reporter element depending on a PPARdelta ligand. The stably and constitutively expressed fusion protein GR-GAL4-humanPPARdelta-LBD binds in the cell nucleus of the PPARdelta reporter cell line via the GAL4 protein portion to the GAL4 DNA binding motifs 5′-upstream of the luciferase reporter element which is stably integrated in the genome of the cell line. There is only little expression of the luciferase reporter gene in the absence of a PPARdelta ligand if fatty acid-depleted fetal calf serum (cs-FCS) is used in the assay. PPARdelta ligands bind and activate the PPARdelta fusion protein and thereby stimulate expression of the luciferase reporter gene. […]
In general terms: In a reporter assay the amount or activity of a reporter protein is the signal.

For test [2] the following is noted: diabetic animal model; cited from earlier work.
For test [3] the following is noted: obese, insulin resistant rhesus monkeys, cited from earlier work.
The conditions of test [4]: rhesus monkeys; cited from earlier work.
For test [5] the following is noted: cynomolgus monkeys; cited from earlier work.
For test [6] the following is noted: two weeks clinical trials in healthy volunteers; cited from earlier work.

Compound `CCOc1cc(C(F)(F)F)ccc1C(=O)NCCc1ccc(S(=O)(=O)Nc2nnc(C(C)C)s2)cc1` [Example 16, 2-Ethoxy-N-{2-[4-(5-isopropyl-[1,3,4]thiadiazol-2-ylsulfamoyl)-phenyl]-ethyl}-4-trifluoromethyl-benzamide] showed a pEC50 in test [1] of 7.34.

For `CCCc1c(OCCCOc2ccc(OCC(=O)O)cc2)ccc(C(C)=O)c1O` [Example L-165041], the plasma cholesterol result in test [2] is “raises”.

Turning to `Cc1cc(SCc2sc(-c3ccc(C(F)(F)F)cc3)nc2C)ccc1OCC(=O)O` [GW501516], in test [3] (plasma), the insulin levels entry was “decreases” and the triglycerides result is listed as “decreases”. Further, in test [3], the HDL-cholesterol result was “raises” and the “plasma LDL-cholesterol” value was “decreases”.

As to `CCCc1c(OCCCSc2nnc(SCC(=O)O)s2)ccc(C(C)=O)c1O` [YM-16638], the plasma lipids result in test [4] is recorded as “significantly lowers”; in test [5], “significantly lowers”; in test [6], “acts in a similar manner”.
